Experimental data taken from US8163907B2, “Dihydropyridine calcium antagonist compounds, preparation methods, and medical uses thereof” (Cosunter Pharmaceutical Company, priority 2008, dated 2012).
Counter-ions that a name gives are not always drawn.

Test system: isolated rat's thoracic aorta ring
Test: Contraction of an isolated rat's thoracic aorta ring caused by KCl (vascular relaxation)
Type: cell-based
Conditions: 80 mmol/L KCl, n=6; for IC50: isolated rat thoracic aorta ring with complete endodermis, read-out: IC50, inhibition of contraction of a vascular ring with complete endodermis caused by KCl
Text: The effect of compounds of the present invention to the contraction of an isolated rat's thoracic aorta ring caused by KCl is described as follows:
The present invention synthesizes 21 new DHP compounds, and some of the compounds are selected for performing pharmacological tests. With reference to Comparison of vasodilatation effect between quercetin and rutin in the isolated rat thoracic aorta authored by ZHOU Xin-mei, YAO Hui, XIA Man-li, et al, and published in Journal of Zhejiang University: Medical Sciences, 2006, 35(1), 29-33 for an embodiment.
A male SD rat, 240-260 g, supplied by Institute of Laboratory Animal Breeding and Reproduction, Qing Long Shan of Jiang Ning. Certificate of Quality No.: SCXK (So) 2002-0018.
NaCl:118.3 mmol/L, KCl:4.7 mmol/L, CaCl2: 2.5 mmol/L, MgSO4.7H2O:1.2 mmol/L, KH2PO4:1.2 mmol/L, NaHCO3:25 mmol/L, and glucose:11.1 mmol/L.
Hit a male rat at its head until it faints. Quickly remove the thoracic aorta, and put it into a K-H solution passed with a mixed gas having 95% O2+5% CO2. Carefully remove connective tissues around the thoracic aorta and cut the blood vessel into a vascular ring of 3 mm wide. Avoid any excessive pulling to prevent damages to the endodermis. Hang the vascular ring into a bathing trough containing 30 ml of K-H liquid, and keep passing the mixed gas of 95% O2+5% CO2, and maintain the temperature at 37±0.5[…]. Adjust the rest tension to 2.0 g. Keep it in equilibrium for 2 hrs, and change the liquid once every 15 min.
Inspection of the activity of the endodermis of the blood vessel: After the thoracic aorta ring is stable, change the liquid once, and add 1 μmol/L of NA into the bathing trough. After the contraction has reached the peak value for 15 min., add 1 μmol/L of Ach. If the expected contraction of the vascular relaxation is greater than 60% after Ach is added, then the endodermis is considered to be complete, or else the endodermis will be damaged.
A thoracic aorta ring with a complete endodermis is selected for conducting the experiment. After the changed liquid is stable, Add 80 mmol/L KCl to induce the maximum contraction amplitude, sequentially accumulate the medications, such that the medicine concentrations are 0.05 μmol/L, 0.1 μmol/L, 0.5 μmol/L, 1 μmol/L, 2 μmol/L, 4 μmol/L, and 10 μmol/L respectively. Record the change of tensions. The vascular relaxation level is indicated by the inhibition rate. In other words, KCl induces a difference of values between the maximum tension of the contraction and the vascular tension after medicines with different concentrations are added. The ratio of differences of the values to the maximum contraction amplitude induced by KCl reflects the level of vascular relaxation. The sample size of the arota rings for each medicine group is 6. In other words, the experiment is performed repeatedly for 6 times.

[1] = Rattus norvegicus, 0.1 μmol/L, x±S, read-out: Inhibition Rate (%)
[2] = Rattus norvegicus, 0.5 μmol/L, x±S, read-out: Inhibition Rate (%)
[3] = Rattus norvegicus, 1 μmol/L, x±S, read-out: Inhibition Rate (%)
[4] = Rattus norvegicus, 2 μmol/L, x±S, read-out: Inhibition Rate (%)
[5] = Rattus norvegicus, 4 μmol/L, x±S, read-out: Inhibition Rate (%)

Row | IC50 | Molecule | inhibition at 0.1 µM [1] | inhibition at 0.5 µM [2] | inhibition at 1 µM [3] | inhibition at 2 µM [4] | inhibition at 4 µM [5] | inhibition at 10 µM (Rattus norvegicus, 10 μmol/L, x±S, read-out: Inhibition Rate (%)) | Inhibition Rate (%) (0.1 μmol/L, x±S) | Inhibition Rate (%) (0.5 μmol/L, x±S) | Inhibition Rate (%) (1 μmol/L, x±S) | Inhibition Rate (%) (2 μmol/L, x±S) | Inhibition Rate (%) (4 μmol/L, x±S) | Inhibition Rate (%) (10 μmol/L, x±S) | inhibition at 0.05 µM (Rattus norvegicus, 0.05 μmol/L, x±S, read-out: Inhibition Rate (%))
1 | 2000 nM | COC(=O)C1=C(C)NC(C)=C(C(=O)OCCCN2CCN(CCOc3ccccc3OC)CC2)C1c1cccc([N+](=O)[O-])c1 (stereo not drawn) [Compound I4, 1,4-dihydro-2,6-dimethyl-4-(3-nitrophenyl)-3,5-pyridinecarboxylic acid methyl ester 3-(N-4-(2-(2-methoxyphenoxy)ethyl)piperazinyl)propyl ester hydrochloride] | 13.2 ± 1.3% | 20.5 ± 2.2% | 33.8 ± 2.8% | 59.4 ± 4% | 62.4 ± 4.8% | 72 ± 4.7% | – | – | – | – | – | – | –
2 | 500 nM | COC(=O)C1=C(C)NC(C)=C(C(=O)OCCCCN2CCN(CCOc3ccccc3OC)CC2)C1c1cccc([N+](=O)[O-])c1.Cl (stereo not drawn) [Compound I5, 1,4-dihydro-2,6-dimethyl-4-(3-nitrophenyl)-3,5-pyridinecarboxylic acid methyl ester-4-(N-4-(2-(2-methoxyphenoxy)ethyl)piperazinyl)butyl ester hydrochloride] | – | – | – | – | – | – | 24.5 ± 3.2% | 47.9 ± 3.9% | 66.0 ± 4.0% | 75.0 ± 3.5% | 91.6 ± 3.2% | 100.1 ± 3.0% | –
3 | 1900 nM | COC(=O)C1=C(C)NC(C)=C(C(=O)OCCN2CCN(CCOC(c3ccccc3)c3ccccc3)CC2)C1c1cccc([N+](=O)[O-])c1.Cl (stereo not drawn) [Compound I6, 1,4-dihydro-2,6-dimethyl-4-(3-nitrophenyl)-3,5-pyridinecarboxylic acid methyl ester2-(N-4-(diphenylmethoxyethyl)piperazinyl)ethyl ester hydrochloride] | – | – | – | – | – | – | 9.3 ± 1.0% | 20.5 ± 2.5% | 33.7 ± 2.4% | 49.7 ± 3.5% | 66.9 ± 3.6% | 79.0 ± 4.5% | –
4 | 200 nM | COC(=O)C1=C(C)NC(C)=C(C(=O)OCCN2CCN(CCOc3ccccc3OC)CC2)C1c1cccc([N+](=O)[O-])c1 (stereo not drawn) [Compound I14, 1,4-dihydro-2,6-dimethyl-4-(3-nitrophenyl)-3,5-pyridinecarboxylic acid methyl ester2-(N-4-(2-(2-methoxyphenoxy)ethyl)piperazinyl)ethyl ester hydrochloride] | 35.7 ± 3% | 62.9 ± 6.8% | 81.7 ± 3.3% | 96.2 ± 4.5% | 101 ± 3.4% | – | – | – | – | – | – | – | 27.4 ± 3.4%
5 | 800 nM | COC(=O)C1=C(C)NC(C)=C(C(=O)OCCCN2CCN(CC(O)COc3ccccc3OC)CC2)C1c1cccc([N+](=O)[O-])c1.Cl (stereo not drawn) [II2, 1,4-dihydro-2,6-dimethyl-4-(3-nitrophenyl)-3,5-pyridinecarboxylic acid methyl ester3-(N-4-(3-(2-methoxyphenoxy)-2-hydroxpropyl)piperazinyl)propyl ester hydrochloride] | – | – | – | – | – | – | 11.0 ± 1.5% | 32.2 ± 3.0% | 50.7 ± 5.7% | 65.2 ± 4.2% | 93.4 ± 3.1% | 101.2 ± 3.2% | –

Row | Molecule | IC50 | inhibition at 0.1 µM [1] | inhibition at 0.5 µM [2] | inhibition at 1 µM [3] | inhibition at 2 µM [4] | inhibition at 4 µM [5] | inhibition at 10 µM (Rattus norvegicus, 10 μmol/L, x±S, read-out: Inhibition Rate (%)) | Inhibition Rate (%) (0.1 μmol/L, x±S) | Inhibition Rate (%) (0.5 μmol/L, x±S) | Inhibition Rate (%) (1 μmol/L, x±S) | Inhibition Rate (%) (2 μmol/L, x±S) | Inhibition Rate (%) (4 μmol/L, x±S) | Inhibition Rate (%) (10 μmol/L, x±S) | inhibition at 0.05 µM (Rattus norvegicus, 0.05 μmol/L, x±S, read-out: Inhibition Rate (%))
6 | Levamlodipine Besylate [reference compound] | 4100 nM | – | – | – | – | – | – | 4.5 ± 0.6% | 18.4 ± 2.6% | 37.7 ± 3.6% | 46.8 ± 4.1% | 69.0 ± 5.9% | 84.6 ± 6.1% | –
